Assay results reported in US20050282755A1, “Compositions having antimicrobial activity and uses thereof” (priority 2004, published 2005).
Values after ≈ are worked out from the molar mass of the structure shown. Non-standard residues stand in square brackets, D forms with d. Residues, ends and D or L forms follow the SMILES beside them. *: point of attachment. Lauroyl = CCCCCCCCCCCC(=O)*

Experiments:
Format in all cases: cell-based
[1] = tested on: Staphylococcus aureus ATCC 29213; assay: MIC, NCCLS M7-A6 broth microdilution, cation-adjusted Mueller Hinton broth (Table 9, no superscript); details: ATCC 29213
How it was run: (§1)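 Broth microdilution in cation-adjusted Mueller Hinton broth with log-phase inoculum at 5×10^5 to 1×10^6 CFU/mL, incubated overnight at 37° C. MIC was the lowest peptide concentration showing no visible turbidity versus the no-peptide control.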

[2] = tested on: Staphylococcus epidermidis ATCC 12228; assay: MIC, NCCLS M7-A6 broth microdilution (Table 9, no superscript); details: ATCC 12228
How it was run: as §1

[3] = tested on: Pseudomonas aeruginosa ATCC 27853; assay: as above; details: ATCC 27853
How it was run: as §1

Salmonella dublin (Lane) = assay: as above
How it was run: as §1

[4] = tested on: Escherichia coli ATCC 25922; assay: as above; details: ATCC 25922
How it was run: as §1

[5] = tested on: Propionibacterium acnes ATCC 6919; assay: MIC, agar dilution method NCCLS M11-A6, Brucella agar, anaerobic (Table 9, superscript c); details: ATCC 6919
How it was run: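 MIC taken as the lowest peptide level giving no colonies on the plate. Plates were inoculated to 1.5×10^8 CFU/milliliter, then kept anaerobically at 37° C. for 48-96 hours; method follows NCCLS M11-A6.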

[6] = tested on: Candida albicans ATCC 18804; assay: MIC in yeasts, NCCLS M27-A2 broth microdilution, RPMI 1640 (Table 9, letter e); details: ATCC 18804
How it was run: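 Plates incubated 24 to 48 hours at 37° C, with yeast seeded at 0.5×10^3–2.5×10^3 CFU/milliliter final in RPMI 1640 (glutamine, phenol red indicator). MIC was read as the lowest peptide concentration showing no visible growth.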

Compound	MIC S. aureus [1]	MIC S. epidermidis [2]	MIC P. aeruginosa [3]	MIC S. dublin (Salmonella dublin (Lane))	MIC E. coli [4]	MIC P. acnes [5]	MIC C. albicans [6]
CCCCCCCCCCCC(=O)NCCCC[C@H](NC(=O)[C@H](CCCNC(=N)N)NC(=O)[C@H](CC(C)C)NC(=O)[C@H](Cc1ccccc1)NC(=O)[C@H](CC(N)=O)NC(=O)[C@H](CCCNC(=N)N)NC(=O)[C@H](C)NC(=O)[C@@H](NC(=O)[C@H](CC(=O)O)NC(=O)[C@H](CCCNC(=N)N)NC(=O)[C@H](Cc1c[nH]c2ccccc12)NC(=O)[C@H](CCCNC(=N)N)NC(=O)[C@H](CO)NC(=O)[C@@H](N)CCCNC(=N)N)C(C)C)C(N)=O [Peptide 181, H2N-RSRWRDVARNFLRK(Lauryl)-NH2] (H-RSRWRDVARNFLRK(Lauroyl)-NH2)	4 µg/mL (≈ 1.96 µM)	1 µg/mL (≈ 0.49 µM)	4 µg/mL (≈ 1.96 µM)	16 µg/mL (≈ 7.84 µM)	4 µg/mL (≈ 1.96 µM)	64c ug/mL	8e ug/mL
CCCCCCCCCCCC(=O)N[C@@H](CO)C(=O)N[C@@H](CCCNC(=N)N)C(=O)N[C@@H](Cc1c[nH]c2ccccc12)C(=O)N[C@@H](CCCNC(=N)N)C(=O)N[C@@H](CC(=O)O)C(=O)N[C@H](C(=O)N[C@@H](C)C(N)=O)C(C)C [Peptide 104, Lauryl-SRWRDVA-NH2] (Lauroyl-SRWRDVA-NH2)	4 µg/mL (≈ 3.74 µM)	>64 µg/mL	>64 µg/mL	>64 µg/mL	>64 µg/mL	>64c ug/mL	>64e ug/mL
CCCCCCCCCCCC(=O)N[C@H](CCCNC(=N)N)C(=O)N[C@H](Cc1c[nH]c2ccccc12)C(=O)N[C@H](CCCNC(=N)N)C(=O)N[C@H](CC(=O)O)C(=O)N[C@@H](C(=O)N[C@H](C)C(=O)N[C@H](CCCNC(=N)N)C(N)=O)C(C)C [Peptide 122, Lauryl-rwrdvar-NH2] (Lauroyl-[dR][dW][dR][dD][dV][dA][dR]-NH2)	8 µg/mL (≈ 7.02 µM)	8 µg/mL (≈ 7.02 µM)	16 µg/mL (≈ 14 µM)	32 µg/mL (≈ 28.1 µM)	64 µg/mL (≈ 56.2 µM)	32c ug/mL	32e ug/mL
CCCCCCCCCCCC(=O)N[C@@H](CCCNC(=N)N)C(=O)N[C@@H](CO)C(=O)N[C@@H](CCCNC(=N)N)C(=O)N[C@@H](Cc1c[nH]c2ccccc12)C(=O)N[C@@H](CCCNC(=N)N)C(=O)N[C@@H](CC(=O)O)C(=O)N[C@@H](Cc1c[nH]c2ccccc12)C(=O)N[C@@H](CO)C(=O)N[C@@H](CCCNC(=N)N)C(=O)N[C@@H](CC(N)=O)C(=O)N[C@@H](Cc1ccccc1)C(=O)N[C@@H](CCSC)C(=O)N[C@@H](CCCNC(=N)N)C(N)=O [Peptide 87, Lauryl-RSRWRDWSRNFMR-NH2] (Lauroyl-RSRWRDWSRNFMR-NH2)	4 µg/mL (≈ 1.97 µM)			8 µg/mL (≈ 3.93 µM)		>64c ug/mL	16e ug/mL
CSCC[C@H](NC(=O)[C@H](Cc1ccccc1)NC(=O)[C@H](CC(N)=O)NC(=O)[C@H](CCCNC(=N)N)NC(=O)[C@H](CO)NC(=O)[C@H](Cc1c[nH]c2ccccc12)NC(=O)[C@H](CC(=O)O)NC(=O)[C@H](CCCNC(=N)N)NC(=O)[C@H](Cc1c[nH]c2ccccc12)NC(=O)[C@H](CCCNC(=N)N)NC(=O)[C@H](CO)NC(=O)[C@H](CCCNC(=N)N)NC(=O)CNC(=O)[C@@H](NC(=O)[C@H](CCCNC(=N)N)NC(=O)[C@H](CO)NC(=O)[C@@H](NC(=O)[C@H](CCCNC(=N)N)NC(=O)[C@@H](NC(=O)[C@H](C)NC(=O)[C@H](C)NC(=O)[C@H](CCCNC(=N)N)NC(=O)[C@H](CCCNC(=N)N)NC(=O)[C@H](CCCNC(=N)N)NC(=O)[C@@H](N)CCCNC(=N)N)[C@@H](C)O)C(C)C)[C@@H](C)O)C(=O)N[C@@H](CCCNC(=N)N)C(=O)N[C@@H](C)C(=O)N[C@@H](C)C(=O)N[C@@H](CCCNC(=N)N)C(=O)N[C@@H](CCCNC(=N)N)C(=O)N[C@@H](CCCNC(=N)N)C(=O)N[C@@H](CCCNC(=N)N)C(N)=O [Peptide 12] (H-RRRRAATRVSRTGRSRWRDWSRNFMRAARRRR-NH2)	16 µg/mL (≈ 3.86 µM)			32 µg/mL (≈ 7.72 µM)		>64c ug/mL	>64e ug/mL

Continued, values first:

MIC S. aureus [1]	MIC S. epidermidis [2]	MIC P. aeruginosa [3]	MIC S. dublin (Salmonella dublin (Lane))	MIC E. coli [4]	MIC P. acnes [5]	MIC C. albicans [6]	Compound
4 µg/mL (≈ 2.03 µM)	2 µg/mL (≈ 1.02 µM)	8 µg/mL (≈ 4.06 µM)	8 µg/mL (≈ 4.06 µM)	8 µg/mL (≈ 4.06 µM)	16c ug/mL	8e ug/mL	CCCCCCCCCCCC(=O)N[C@@H](CCCNC(=N)N)C(=O)N[C@@H](CO)C(=O)N[C@@H](CCCNC(=N)N)C(=O)N[C@@H](Cc1c[nH]c2ccccc12)C(=O)N[C@@H](CCCNC(=N)N)C(=O)N[C@@H](CC(=O)O)C(=O)N[C@H](C(=O)N[C@@H](C)C(=O)N[C@@H](CCCNC(=N)N)C(=O)N[C@@H](CC(N)=O)C(=O)N[C@@H](Cc1c[nH]c2ccccc12)C(=O)N[C@@H](CCSC)C(=O)N[C@@H](CCCNC(=N)N)C(N)=O)C(C)C [Peptide 139, Lauryl-RSRWRDVARNWMR-NH2] (Lauroyl-RSRWRDVARNWMR-NH2)
2 µg/mL (≈ 1.04 µM)	2 µg/mL (≈ 1.04 µM)	8 µg/mL (≈ 4.14 µM)	4 µg/mL (≈ 2.07 µM)	4 µg/mL (≈ 2.07 µM)	8c ug/mL	8e ug/mL	CCCCCCCCCCCC(=O)N[C@H](CCCNC(=N)N)C(=O)N[C@H](CO)C(=O)N[C@H](CCCNC(=N)N)C(=O)N[C@H](Cc1c[nH]c2ccccc12)C(=O)N[C@H](CCCNC(=N)N)C(=O)N[C@H](CC(=O)O)C(=O)N[C@@H](C(=O)N[C@H](C)C(=O)N[C@H](CCCNC(=N)N)C(=O)N[C@H](CC(=O)O)C(=O)N[C@H](Cc1ccccc1)C(=O)N[C@H](CCSC)C(=O)N[C@H](CCCNC(=N)N)C(N)=O)C(C)C [Peptide 249, Lauryl-rsrwrdvardfmr-NH2] (Lauroyl-[dR][dS][dR][dW][dR][dD][dV][dA][dR][dD][dF][dM][dR]-NH2)
16 µg/mL (≈ 8.81 µM)	4 µg/mL (≈ 2.2 µM)	32 µg/mL (≈ 17.6 µM)	64 µg/mL (≈ 35.2 µM)	16 µg/mL (≈ 8.81 µM)	8c ug/mL	64e ug/mL	CCCCCCCCCCCC(=O)N[C@H](CCCNC(=N)N)C(=O)N[C@H](CO)C(=O)N[C@H](CCCNC(=N)N)C(=O)N[C@H](C)C(=O)N[C@H](CCCNC(=N)N)C(=O)N[C@H](CC(=O)O)C(=O)N[C@@H](C(=O)N[C@H](C)C(=O)N[C@H](CCCNC(=N)N)C(=O)N[C@H](CC(N)=O)C(=O)N[C@H](Cc1ccccc1)C(=O)N[C@H](CCSC)C(=O)N[C@H](CCCNC(=N)N)C(N)=O)C(C)C [Peptide 239, Lauryl-rsrardvarnfmr-NH2] (Lauroyl-[dR][dS][dR][dA][dR][dD][dV][dA][dR][dN][dF][dM][dR]-NH2)
8 µg/mL (≈ 4.14 µM)	2 µg/mL (≈ 1.04 µM)	4 µg/mL (≈ 2.07 µM)	16 µg/mL (≈ 8.28 µM)	16 µg/mL (≈ 8.28 µM)	8c ug/mL	32e ug/mL	CCCCCCCCCCCC(=O)N[C@@H](CCCNC(=N)N)C(=O)N[C@H](CO)C(=O)N[C@@H](CCCNC(=N)N)C(=O)N[C@H](Cc1c[nH]c2ccccc12)C(=O)N[C@@H](CCCNC(=N)N)C(=O)N[C@H](CC(=O)O)C(=O)N[C@@H](C(=O)N[C@H](C)C(=O)N[C@@H](CCCNC(=N)N)C(=O)N[C@H](CC(N)=O)C(=O)N[C@H](Cc1ccccc1)C(=O)N[C@H](CCSC)C(=O)N[C@@H](CCCNC(=N)N)C(N)=O)C(C)C [Peptide 158, Lauryl-RsRwRdvaRnfmR-NH2] (Lauroyl-R[dS]R[dW]R[dD][dV][dA]R[dN][dF][dM]R-NH2)
2 µg/mL (≈ 0.98 µM)	1 µg/mL (≈ 0.49 µM)	4 µg/mL (≈ 1.96 µM)	4 µg/mL (≈ 1.96 µM)	4 µg/mL (≈ 1.96 µM)	8c ug/mL	8e ug/mL	CCCCCCCCCCCC(=O)NCCCC[C@@H](NC(=O)[C@@H](CCCNC(=N)N)NC(=O)[C@@H](CC(C)C)NC(=O)[C@@H](Cc1ccccc1)NC(=O)[C@@H](CC(N)=O)NC(=O)[C@@H](CCCNC(=N)N)NC(=O)[C@@H](C)NC(=O)[C@H](NC(=O)[C@@H](CC(=O)O)NC(=O)[C@@H](CCCNC(=N)N)NC(=O)[C@@H](Cc1c[nH]c2ccccc12)NC(=O)[C@@H](CCCNC(=N)N)NC(=O)[C@@H](CO)NC(=O)[C@H](N)CCCNC(=N)N)C(C)C)C(N)=O [Peptide 195, H2N-rsrwrdvarnflrk(Lauryl)-NH2] (H-[dR][dS][dR][dW][dR][dD][dV][dA][dR][dN][dF][dL][dR][dK](Lauroyl)-NH2)
4 µg/mL (≈ 2.08 µM)	2 µg/mL (≈ 1.04 µM)	8 µg/mL (≈ 4.15 µM)	8 µg/mL (≈ 4.15 µM)	8 µg/mL (≈ 4.15 µM)	32c ug/mL	2e ug/mL	CCCCCCCCCCCC(=O)N[C@H](CCCNC(=N)N)C(=O)N[C@H](CO)C(=O)N[C@H](CCCNC(=N)N)C(=O)N[C@H](Cc1c[nH]c2ccccc12)C(=O)N[C@H](CCCNC(=N)N)C(=O)N[C@H](CCC(=O)O)C(=O)N[C@@H](C(=O)N[C@H](C)C(=O)N[C@H](CCCNC(=N)N)C(=O)N[C@H](CC(N)=O)C(=O)N[C@H](Cc1ccccc1)C(=O)N[C@H](CC(C)C)C(=O)N[C@H](CCCNC(=N)N)C(N)=O)C(C)C [Peptide 221, Lauryl-rsrwrevarnflr-NH2] (Lauroyl-[dR][dS][dR][dW][dR][dE][dV][dA][dR][dN][dF][dL][dR]-NH2)
